Assay results taken from PMC9034499, “RORγt agonist enhances anti-PD-1 therapy by promoting monocyte-derived dendritic cells through CXCL10 in cancers” (Journal of Experimental & Clinical Cancer Research : CR, 2022).

Assays:
[1] = Pharmacokinetics in C57BL/6 mice; assay type: in vivo; settings: male, C57BL/6, mouse, plasma; for Tmax: n = 3
Description: Male C57BL/6 mice were divided into two groups: 8-074 single intravenous injection group (2 mg/kg, n = 3) and 8-074 single gavage group (5 mg/kg, n = 3). After administration, blood samples were collected at 0.25, 0.5, 1, 2, 5, 7, and 24 h. Then the plasma samples were separated and stored at − 80 °C until the analysis. After being thawed at room temperature, 10 μL of plasma samples were added with 150 μL of precipitant containing the internal standard (verapamil 40 ng/mL) for the protein precipitation. The supernatant was mixed with a suitable volume of water and then analyzed using liquid chromatography in tandem with mass spectrometry (LC-MS/MS). The concentration of 8–074 in the plasma of the C57 mice after administration was determined using the inter-run standard curve samples (linear range of 3–10,000 ng/mL) and quality control samples.

[2] = test system: Tc17 cells (CD8+ T cells); assay: Murine Tc17 differentiation, flow cytometry; assay type: cell-based, mouse; settings: Tc17, intracellular staining, same concentration
Description: CD4^+ CD25^−CD62L^high cells were purified from C57BL/6 splenocytes using an EasySep Mouse Naïve CD4^+ T cell isolation kit from STEMCELL Technologies (Vancouver, Canada), and they were differentiated into Th17 cells (TGF-β, 2 ng/ml; IL-6, 20 ng/ml; Anti-IFN-γ, 10 μg/ml; Anti-IL-4, 10 μg/ml, BioLegend, San Diego, CA) in the presence of plate-bound anti-CD3 (5 μg/ml, BioLegend, San Diego, CA) and anti-CD28 (2 μg/ml, BioLegend, San Diego, CA). The cells were harvested and processed for cytokine analysis at the RNA or protein level using real-time qPCR, flow cytometry, and ELISA on day five. Alternatively, splenocytes from OT-I mice were activated using OVA-derived peptides SIINFEKL (50 ng/ml, Sangon Biotech, Shanghai, China) and polarized to Tc17 cells using cytokine TGF-β (2 ng/ml, BioLegend, San Diego, CA) and IL-6 (20 ng/ml, BioLegend, San Diego, CA) for four or five days.
Cells were stained with fluorochrome-labeled anti-mouse Ab such as CD45, CD3, CD4, CD8, Foxp3, IFN-γ, IL-17A, CD11b, CD11c, pAKT, pSTAT3, CCR6, or MHCII. […] Cells were acquired using the FACS Aria II machine and analyzed using FlowJo software.

[3] = test system: OVA-pulsed EL-4 lymphoma cells; assay: Ex vivo cytotoxicity assay of Tc17 cells; assay type: cell-based, mouse; settings: Tc17 cells differentiated from OT-I T cells with 8-074
Description: The EL4 cells were pulsed using 50 ng/ml OVA257-264 peptide (SIINFEKL) (Sangon Biotech, Shanghai, China) for 2 h at 37 °C and then labeled with 0.25 μM or 2.5 μM of CFSE (carboxyfluorescein succinimidyl ester; Thermo Fisher Scientific, Massachusetts, America) for 10 min at 37 °C. CFSE^l°^w (SIINFEKL loaded target) and CFSE^high (irrelevant peptide control) EL4 cells were mixed at a 1:1 ratio and then co-cultured with Tc17 cells differentiated from OT-I T cells challenged (or not) with 8-074 at 30:1, 10:1, 3:1, and 1:1 effector to target cell ratios (E: T). The frequencies of the CFSE^l°^w and CFSE^high EL4 cells in the CFSE positive fraction were determined using flow cytometric analysis 18 h after incubation, and the percent of the specific killing was calculated. Specific killing (%) = [1 − (Sample ratio) / (Negative control ratio)] × 100; Sample ratio = [CFSE^l°^w(target)/CFSE^high(irrelevant)] value of each sample co-cultured with Tc17 cells; Negative control ratio = [CFSE^l°^w(target) / CFSE^high (irrelevant)] value of EL4 cells not cultured with Tc17 cells.

What does the source list for CCS(=O)(=O)c1ccc(CC(=O)Nc2ccc(-c3ccc(CC(C)C)c(C#N)c3)c(C(F)(F)F)c2)cc1 [8-074]?
MRT inf ([1]; iv, 2 mg/kg, i.v. 2 mg/kg, first MRTINF line (r8)): 3.84 ± 0.33 h; MRT inf ([1]; iv, 2 mg/kg, i.v. 2 mg/kg, second MRTINF line (r9)): 2.97 ± 0.25 h; AUC(0-inf) ([1]; iv, i.v. 2 mg/kg): 20600 ng·h/mL; AUC(0-t) ([1]; iv, i.v. 2 mg/kg): 20500 ng·h/mL; Cmax ([1]; iv, i.v. 2 mg/kg): 4800 ± 1200 ng/mL; clearance ([1]; iv, i.v. 2 mg/kg): 1.63 ± 0.11 mL/min/kg; Tmax ([1]; iv, i.v. 2 mg/kg): 0.25 h; bioavailability ([1]; oral, i.g. 5 mg/kg vs i.v. 2 mg/kg): 38%; MRT inf ([1]; po, 5 mg/kg, i.g. 5 mg/kg, first MRTINF line (r8)): 4.49 ± 1.2 h; MRT inf ([1]; po, 5 mg/kg, i.g. 5 mg/kg, second MRTINF line (r9)): 3.34 ± 0.52 h; AUC(0-inf) ([1]; po, i.g. 5 mg/kg): 19800 ng·h/mL; AUC(0-t) ([1]; po, i.g. 5 mg/kg): 19700 ng·h/mL; Cmax ([1]; po, i.g. 5 mg/kg): 3020 ± 110 ng/mL; Tmax ([1]; po, i.g. 5 mg/kg): 1.67 ± 0.58 h; half-life ([1]; po, single intragastric administration of 5 mg/kg): 3.34 ± 0.52 h; AUC ([1]; route not given): 20600 ± 1500 ng·h/mL; percentage of CD8+ T cells that express IL-17A [2]: 50.4%; cytotoxic killing activity of treated Tc17 cells [3]: significant increase
